In the assay the target is T1, hM5 (Homo sapiens, UniProt P08912).
T1 construct: expressed in transfected cells
T1 sequence (P08912 1-532): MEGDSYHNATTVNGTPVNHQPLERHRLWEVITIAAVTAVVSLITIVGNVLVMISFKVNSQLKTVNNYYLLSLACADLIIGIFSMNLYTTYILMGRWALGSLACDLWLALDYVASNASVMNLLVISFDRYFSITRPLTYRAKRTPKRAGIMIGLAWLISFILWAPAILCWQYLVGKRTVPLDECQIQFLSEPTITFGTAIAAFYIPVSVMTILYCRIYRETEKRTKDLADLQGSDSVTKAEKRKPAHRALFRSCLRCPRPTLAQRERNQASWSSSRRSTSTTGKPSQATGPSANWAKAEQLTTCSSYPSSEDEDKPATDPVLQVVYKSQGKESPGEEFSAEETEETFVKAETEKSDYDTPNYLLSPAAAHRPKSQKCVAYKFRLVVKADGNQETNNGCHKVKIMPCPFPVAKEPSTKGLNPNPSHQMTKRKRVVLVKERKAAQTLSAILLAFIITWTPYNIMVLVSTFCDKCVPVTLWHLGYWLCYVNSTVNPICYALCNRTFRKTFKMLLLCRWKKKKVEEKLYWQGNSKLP
As to the kind of experiment: Calcium mobilization concentration-response (IC50 vs EC80 acetylcholine), CHO hM5. The class given is cell-based. As to conditions: CELL LINE hM5, read-out: IC50. A digest of the protocol:
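CHO cells stably expressing hM5, dye-loaded, in HBSS/20 mM HEPES/2.5 mM probenecid, pH 7.4. Compounds were pre-incubated 140 s before an EC80 acetylcholine challenge, with calcium flux read kinetically.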
For orientation: A change in cytosolic calcium serves as a functional read-out for many receptors and channels.

Setting [1] is: calcium mobilization, EC80 acetylcholine addition.

Consider 31 molecules from patent US20230183237A1, “COMPETITIVE AND NONCOMPETITIVE INHIBITORS OF THE MUSCARINIC ACETYLCHOLINE RECEPTOR M5” (Vanderbilt University, priority 2020, published 2023).

Read-outs that look alike come from different tables or passages of the source. Bounds are passed on as bounds.

Regarding `Cc1cc2ncnn2cc1C1CCN(S(=O)(=O)c2c(Cl)nn(C)c2C)CC1` [Compound 325, 6-(1-((3-chloro-1,5-dimethyl-1H-pyrazol-4-yl)sulfonyl)piperidin-4-yl)-7-methyl-[1,2,4]triazolo[1,5-a]pyridine], under setting [1], the IC50 is 25 nM.
Same read-out and setting: the same measure for `[2H]C1([2H])Oc2ccc(S(=O)(=O)N3CC=C(c4cn5ncnc5cc4C)CC3)cc2C1([2H])[2H]` [Compound 72, 6-(1-((2,3-dihydrobenzofuran-5-yl-2,2,3,3-d4)sulfonyl)-1,2,3,6-tetrahydropyridin-4-yl)-7-methyl-[1,2,4]triazolo[1,5-a]pyridine]: 699 nM; for `Cc1cc2nccn2nc1C1CCN(S(=O)(=O)c2c(C)nn(C)c2Cl)CC1` [Compound 248, 6-(1-((5-chloro-1,3-dimethyl-1-pyrazol-4-yl)sulfonyl)piperidin-4-yl)-7-methylimidazo[1,2-b]pyridazine]: 69 nM.
Same read-out and setting: as for `Cc1cc(C2CCN(S(=O)(=O)c3cnn(C)c3C)CC2)cn2ncnc12` [Compound 199, 6-(1-((1,5-dimethyl-1H-pyrazol-4-yl)sulfonyl)piperidin-4-yl)-8-methyl-[1,2,4]triazolo[1,5-a]pyridine], the figure is over 10000 nM.
With `Cc1ncc(S(=O)(=O)N2CCC(c3cc4cccnc4cc3C)CC2)s1` [Compound 449, 2-methyl-5-((4-(7-methylquinolin-6-yl)piperidin-1-yl)sulfonyl)thiazole], the IC50 (vs EC80 acetylcholine) was 2360 nM.
Same read-out and setting: the same measure for `[2H]c1nc2cc(Cl)c(C3=CCN(S(=O)(=O)c4cnc(C)o4)CC3)cn2n1` [Compound 610, 5-((4-(7-chloro-[1,2,4]triazolo[1,5-a]pyridin-6-yl-2-d)-3,6-dihydropyridin-1(2H)-yl)sulfonyl)-2-methyloxazole]: 40 nM.
As to `COc1ncc(S(=O)(=O)N2CCC(c3cn4ncnc4cc3C)CC2)s1` [Compound 600, 2-methoxy-5-((4-(7-methyl-[1,2,4]triazolo[1,5-a]pyridin-6-yl)piperidin-1-yl)sulfonyl)thiazole], the IC50 (vs EC80 acetylcholine) is 529 nM.
Turning to `Cc1sc(C#N)nc1C1=CCN(S(=O)(=O)c2cnn(C)c2C)CC1` [Compound 204, 4-(1-((1,5-dimethyl-1H-pyrazol-4-yl)sulfonyl)-1,2,3,6-tetrahydropyridin-4-yl)-5-methylthiazole-2-carbonitrile], the IC50 under setting [1] was over 10000 nM.
`Cc1ncc(S(=O)(=O)N2CCC(c3cn4ncnc4cc3CF)CC2)o1` [Compound 623, 5-((4-(7-(fluoromethyl)-[1,2,4]triazolo[1,5-a]pyridin-6-yl)piperidin-1-yl)sulfonyl)-2-methyloxazole]: under “vs EC80 acetylcholine”, the IC50 was determined as 246 nM.
As to `O=S(=O)(c1ccc2ncsc2c1)N1CCC(c2cn3ncnc3cc2F)CC1` [Compound 107, 6-((4-(7-fluoro-[1,2,4]triazolo[1,5-a]pyridin-6-yl)piperidin-1-yl)sulfonyl)benzo[d]thiazole], the IC50 under setting [1] was over 10000 nM.
Regarding `O=S(=O)(c1ccc2ncccc2c1)N1CCC(c2cc3cc[nH]c3nn2)CC1` [Compound 23, 6-((4-(7H-pyrrolo[2,3-c]pyridazin-3-yl)piperidin-1-yl)sulfonyl)quinoline], the IC50 under setting [1] is 2560 nM.
Consider `O=S(=O)(c1cnc2ccccn12)N1CCC(c2cn3ncnc3cc2Cl)CC1` [Compound 342, 7-chloro-6-(1-(imidazo[1,2-a]pyridin-3-ylsulfonyl)piperidin-4-yl)-[1,2,4]triazolo[1,5-a]pyridine], for which, under setting [1], the IC50 was 15 nM.
In the case of `O=S(=O)(c1cnn2c1CCCC2)N1CCC(c2ccc3ncnn3c2)CC1` [Compound 287, 6-(1-((4,5,6,7-tetrahydropyrazolo[1,5-a]pyridin-3-yl)sulfonyl)piperidin-4-yl)-[1,2,4]triazolo[1,5-a]pyridine], the IC50 under setting [1] was 237 nM.
Same read-out and setting: the same measure for `C=Cc1cc2ncnn2cc1C1=CCN(S(=O)(=O)c2cnn(C)c2C)CC1` [Compound 147, 6-(1-((1,5-dimethyl-1H-pyrazol-4-yl)sulfonyl)-1,2,3,6-tetrahydropyridin-4-yl)-7-vinyl-[1,2,4]triazolo[1,5-a]pyridine]: 51 nM; for `Cc1sc(C(N)=O)nc1C1CCN(S(=O)(=O)c2ccc3c(c2)CCO3)CC1` [Compound 211, 4-(1-((2,3-dihydrobenzofuran-5-yl)sulfonyl)piperidin-4-yl)-5-methylthiazole-2-carboxamide]: over 10000 nM.
Same read-out and setting: as for `CCc1cc2ncnn2cc1C1CCN(S(=O)(=O)c2c(Cl)nc3sccn23)CC1` [Compound 336, 6-chloro-5-((4-(7-ethyl-[1,2,4]triazolo[1,5-a]pyridin-6-yl)piperidin-1-yl)sulfonyl)imidazo[2,1-b]thiazole], the figure is 106 nM; as for `O=S(=O)(c1ccc2c(c1)CCO2)N1CCC(c2nc3ccccc3[nH]2)CC1` [Compound 3, 2-(1-((2,3-dihydrobenzofuran-5-yl)sulfonyl)piperidin-4-yl)-1H-benzo[d]imidazole], over 10000 nM; as for `Cc1cc2ncnn2nc1C1=CCN(S(=O)(=O)c2cnn(C)c2C)CC1` [Compound 169, 6-(1-((1,5-dimethyl-1H-pyrazol-4-yl)sulfonyl)-1,2,3,6-tetrahydropyridin-4-yl)-7-methyl-[1,2,4]triazolo[1,5-b]pyridazine], 974 nM.
The same measure, in the same setting: the same measure for `O=S(=O)(c1c(Cl)nc2sccn12)N1CCC(c2cn3ncnc3cc2F)CC1` [Compound 328, 6-chloro-5-((4-(7-fluoro-[1,2,4]triazolo[1,5-a]pyridin-6-yl)piperidin-1-yl)sulfonyl)imidazo[2,1-b]thiazole]: 327 nM; for `COc1cc(C2CCN(S(=O)(=O)c3ccc4c(c3)CCO4)CC2)cn2ncnc12` [Compound 114, 6-(1-((2,3-dihydrobenzofuran-5-yl)sulfonyl)piperidin-4-yl)-8-methoxy-[1,2,4]triazolo[1,5-a]pyridine]: over 10000 nM.
In the case of `O=S(=O)(c1ccc2c(c1)CCO2)N1CC=C(c2cc3ncnn3cc2Cl)CC1` [Compound 140, 6-chloro-7-(1-((2,3-dihydrobenzofuran-5-yl)sulfonyl)-1,2,3,6-tetrahydropyridin-4-yl)-[1,2,4]triazolo[1,5-a]pyridine], under setting [1], the IC50 is over 10000 nM.
On the same count and under the same terms, the same measure for `O=S(=O)(c1ccc2ncsc2c1)N1CCC(c2cc3[nH]ccc3cn2)CC1` [Compound 30, 6-((4-(1H-pyrrolo[3,2-c]pyridin-6-yl)piperidin-1-yl)sulfonyl)benzo[d]thiazole]: over 10000 nM; for `Cc1cc2ncnn2cc1C1=CCN(S(=O)(=O)c2ccc3c(c2)CCO3)CC1` [Compound 35, 6-(1-((2,3-dihydrobenzofuran-5-yl)sulfonyl)-1,2,3,6-tetrahydropyridin-4-yl)-7-methyl-[1,2,4]triazolo[1,5-a]pyridine]: 518 nM; for `O=S(=O)(c1cnc2n1CCC2)N1CC=C(c2cn3ncnc3cc2Cl)CC1` [Compound 207, 7-chloro-6-(1-((6,7-dihydro-5H-pyrrolo[1,2-a]imidazol-3-yl)sulfonyl)-1,2,3,6-tetrahydropyridin-4-yl)-[1,2,4]triazolo[1,5-a]pyridine]: 1600 nM.
The same measure, in the same setting: the same measure for `Cc1cc2nc(C(F)F)nn2cc1C1=CCN(S(=O)(=O)c2cnn3c2CCCC3)CC1` [Compound 316, 2-(difluoromethyl)-7-methyl-6-(1-((4,5,6,7-tetrahydropyrazolo[1,5-a]pyridin-3-yl)sulfonyl)-1,2,3,6-tetrahydropyridin-4-yl)-[1,2,4]triazolo[1,5-a]pyridine]: 1200 nM; for `O=S(=O)(c1cnn2c1CCCC2)N1CC=C(c2cn3ncnc3cc2Cl)CC1` [Compound 242, 7-chloro-6-(1-((4,5,6,7-tetrahydropyrazolo[1,5-a]pyridin-3-yl)sulfonyl)-1,2,3,6-tetrahydropyridin-4-yl)-[1,2,4]triazolo[1,5-a]pyridine]: 5 nM.
On the same count and under the same terms, as for `O=S(=O)(c1c(Cl)nc2sccn12)N1CCC(c2cn3ncnc3cc2C(F)(F)F)CC1` [Compound 340, 6-chloro-5-((4-(7-(trifluoromethyl)-[1,2,4]triazoto[1,5-a]pyridin-6-yl)piperidin-1-yl)sulfonyl)imidazo[2,1-b]thiazole], the figure is 173 nM; as for `Cc1c(S(=O)(=O)N2CC=C(c3cc4c(cc3Cl)N(C)CCO4)CC2)cnn1C` [Compound 376, 6-chloro-7-(1-((1,5-dimethyl-1H-pyrazol-4-yl)sulfonyl)-1,2,3,6-tetrahydropyridin-4-yl)-4-methyl-3,4-dihydro-2H-benzo[b][1,4]oxazine], 1450 nM.
In the case of `Cn1cc(S(=O)(=O)N2CCC(c3cn4ncnc4cc3Cl)CC2)nn1` [Compound 557, 7-chloro-6-(1-((1-methyl-1H-1,2,3-triazol-4-yl)sulfonyl)piperidin-4-yl)-[1,2,4]triazolo[1,5-a]pyridine], the IC50 (vs EC80 acetylcholine) is 25 nM.
As for `Cc1cnc2ccccc2c1C1=CCN(S(=O)(=O)c2cnn3c2OCCC3)CC1` [Compound 428, 3-((4-(3-methylquinolin-4-yl)-3,6-dihydropyridin-1(2H)-yl)sulfonyl)-6,7-dihydro-5H-pyrazolo[5,1-b][1,3]oxazine], the IC50 (vs EC80 acetylcholine) was found to be 63 nM.
Same read-out and setting: as for `[2H]C([2H])([2H])Oc1c(S(=O)(=O)N2CCC(c3cn4ncnc4cc3Cl)CC2)cnn1C` [Compound 613, 7-chloro-6-(1-((5-(methoxy-d3)-1-methyl-1H-pyrazol-4-yl)sulfonyl)piperidin-4-yl)-[1,2,4]triazolo[1,5-a]pyridine], the figure is 22 nM.

The term IC50 denotes the midpoint of a concentration-inhibition curve.
